Measurements reported in patent US9708314B2, “Heterocyclic amide compound” (NISSAN CHEMICAL INDUSTRIES, LTD., priority 2013, dated 2017).

Tests used:
Format in all cases: in vivo
[1] = system: Beta vulgaris ssp. vulgaris; assay: Test Example 4: effect on crop by application to foliage (diluvial soil, plastic box); conditions: Application herbicide amount 320 g/ha; foliage application
Summary of the method: (§1)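 Read-out is a 0–5 visual grade of herbicidal ratio (5: ≥90%, almost withered; 0: ≤5%) taken three weeks after treatment. Compound was applied as a diluted emulsion to stem and leaf parts of 14-day greenhouse-grown plants (25° C. to 30° C.) at rates expressed as g/ha.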

Triticum aestivum = assay: as above; conditions: Application herbicide amount 320 g/ha; foliage application
Summary of the method: as §1

[2] = system: directly sowed Oryza sativa; assay: as above; conditions: Application herbicide amount 320 g/ha; foliage application
Summary of the method: as §1

Zea mays = assay: as above; conditions: Application herbicide amount 320 g/ha; foliage application
Summary of the method: as §1

Brassica campestris L. = assay: as above; conditions: Application herbicide amount 320 g/ha; foliage application
Summary of the method: as §1

Glycine max = assay: as above; conditions: Application herbicide amount 320 g/ha; foliage application
Summary of the method: as §1

Avena fatua = assay: Test Example 4: herbicidal effect by application to foliage (diluvial soil, plastic box); conditions: Application herbicide amount 320 g/ha; foliage application
Summary of the method: as §1

Chenopodium album = assay: as above; conditions: Application herbicide amount 320 g/ha; foliage application
Summary of the method: as §1

[3] = system: Echinochloa crus-galli var. crus-galli; assay: as above; conditions: Application herbicide amount 320 g/ha; foliage application
Summary of the method: as §1

Galium spurium = assay: as above; conditions: Application herbicide amount 320 g/ha; foliage application
Summary of the method: as §1

Veronica persica = assay: as above; conditions: Application herbicide amount 320 g/ha; foliage application
Summary of the method: as §1

Stellaria media = assay: as above; conditions: Application herbicide amount 320 g/ha; foliage application
Summary of the method: as §1

Abutilon theophrasti = assay: as above; conditions: Application herbicide amount 320 g/ha; foliage application
Summary of the method: as §1

Digitaria ciliaris = assay: as above; conditions: Application herbicide amount 320 g/ha; foliage application
Summary of the method: as §1

Apera spica-venti. = assay: as above; conditions: Application herbicide amount 320 g/ha; foliage application
Summary of the method: as §1

Lolium multiflorum Lam. = assay: as above; conditions: Application herbicide amount 320 g/ha; foliage application
Summary of the method: as §1

Setaria viridis = assay: as above; conditions: Application herbicide amount 320 g/ha; foliage application
Summary of the method: as §1

Alopecurus myosuroides = assay: as above; conditions: Application herbicide amount 320 g/ha; foliage application
Summary of the method: as §1

Amaranthus retroflexus = assay: as above; conditions: Application herbicide amount 320 g/ha; foliage application
Summary of the method: as §1

[4] = system: Echinochloa oryzacola Vasing.; assay: Test Example 1: herbicidal activity, application before weed generation in submerged conditions; conditions: Application herbicide amount 320 g/ha; Seventeenth Table
Summary of the method: (§2)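 Submerged pot test: alluvial soil, 4 cm water, seeds sown mixed, 2.5-leaf rice transplanted; emulsion in water applied to surface day of sowing, dose g/ha; greenhouse 25–30° C.; 3 wk; 0–5 rating.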

Scirpus juncoides = assay: as above; conditions: Application herbicide amount 320 g/ha; Seventeenth Table
Summary of the method: as §2

Monochoria vaginalis = assay: as above; conditions: Application herbicide amount 320 g/ha; Seventeenth Table
Summary of the method: as §2

Structure (SMILES)	f (Beta vulgaris ssp. vulgaris) effect on crop grade [1]	e (Triticum aestivum) effect on crop grade (Triticum aestivum)	b (directly sowed Oryza sativa) effect on crop grade [2]	c (Zea mays) effect on crop grade (Zea mays)	g (Brassica campestris L.) effect on crop grade (Brassica campestris L.)	d (Glycine max) effect on crop grade (Glycine max)	I (Avena fatua) herbicidal effect grade (Avena fatua)	O (Chenopodium album) herbicidal effect grade (Chenopodium album)	H (Echinochloa crus-galli var. crus-galli) herbicidal effect grade [3]	Q (Galium spurium) herbicidal effect grade (Galium spurium)	R (Veronica persica) herbicidal effect grade (Veronica persica)	P (Stellaria media) herbicidal effect grade (Stellaria media)	M (Abutilon theophrasti) herbicidal effect grade (Abutilon theophrasti)	F (Digitaria ciliaris) herbicidal effect grade (Digitaria ciliaris)	L (Apera spica-venti.) herbicidal effect grade (Apera spica-venti.)	K (Lolium multiflorum Lam.) herbicidal effect grade (Lolium multiflorum Lam.)	G (Setaria viridis) herbicidal effect grade (Setaria viridis)	J (Alopecurus myosuroides) herbicidal effect grade (Alopecurus myosuroides)	N (Amaranthus retroflexus) herbicidal effect grade (Amaranthus retroflexus)	A: Echinochloa oryzicola Vasing. (herbicidal effect grade) [4]	other results
Cc1nnc(NC(=O)c2ccc(C(F)(F)F)n3c(SCC4CC4)nnc23)o1 [1-115]	5 (Herbicidal ratio of 90% or more (almost completely withered))	2 (Herbicidal ratio of 20% or more and less than 40%)	0 (Herbicidal ratio of 5% or less (almost no effect))	0 (Herbicidal ratio of 5% or less (almost no effect))	1 (Herbicidal ratio of 5% or more and less than 20%)	2 (Herbicidal ratio of 20% or more and less than 40%)	2 (Herbicidal ratio of 20% or more and less than 40%)	5 (Herbicidal ratio of 90% or more (almost completely withered))	5 (Herbicidal ratio of 90% or more (almost completely withered))	3 (Herbicidal ratio of 40% or more and less than 70%)	4 (Herbicidal ratio of 70% or more and less than 90%)	4 (Herbicidal ratio of 70% or more and less than 90%)	3 (Herbicidal ratio of 40% or more and less than 70%)	5 (Herbicidal ratio of 90% or more (almost completely withered))	2 (Herbicidal ratio of 20% or more and less than 40%)	1 (Herbicidal ratio of 5% or more and less than 20%)	5 (Herbicidal ratio of 90% or more (almost completely withered))	2 (Herbicidal ratio of 20% or more and less than 40%)	4 (Herbicidal ratio of 70% or more and less than 90%)	5 (Herbicidal ratio of 90% or more (almost completely withered))	B: Scirpus juncoides (herbicidal effect grade) (Scirpus juncoides): 4 (Herbicidal ratio of 70% or more and less than 90%); C: Monochoria vaginalis (herbicidal effect grade) (Monochoria vaginalis): 3 (Herbicidal ratio of 40% or more and less than 70%)
Cc1nnc(NC(=O)c2ccc(C(F)(F)F)n3c(SCC4CCCO4)nnc23)o1 (stereo not shown) [1-116]	5 (Herbicidal ratio of 90% or more (almost completely withered))	2 (Herbicidal ratio of 20% or more and less than 40%)	0 (Herbicidal ratio of 5% or less (almost no effect))	0 (Herbicidal ratio of 5% or less (almost no effect))	4 (Herbicidal ratio of 70% or more and less than 90%)	3 (Herbicidal ratio of 40% or more and less than 70%)	3 (Herbicidal ratio of 40% or more and less than 70%)	5 (Herbicidal ratio of 90% or more (almost completely withered))	5 (Herbicidal ratio of 90% or more (almost completely withered))	3 (Herbicidal ratio of 40% or more and less than 70%)	4 (Herbicidal ratio of 70% or more and less than 90%)	5 (Herbicidal ratio of 90% or more (almost completely withered))	4 (Herbicidal ratio of 70% or more and less than 90%)	5 (Herbicidal ratio of 90% or more (almost completely withered))	1 (Herbicidal ratio of 5% or more and less than 20%)	1 (Herbicidal ratio of 5% or more and less than 20%)	4 (Herbicidal ratio of 70% or more and less than 90%)	1 (Herbicidal ratio of 5% or more and less than 20%)	4 (Herbicidal ratio of 70% or more and less than 90%)	5 (Herbicidal ratio of 90% or more (almost completely withered))	B: Scirpus juncoides (herbicidal effect grade) (Scirpus juncoides): 4 (Herbicidal ratio of 70% or more and less than 90%); C: Monochoria vaginalis (herbicidal effect grade) (Monochoria vaginalis): 2 (Herbicidal ratio of 20% or more and less than 40%)
Cc1nnc(NC(=O)c2ccc(C(F)(F)F)n3c(N4CCSCC4)nnc23)o1 [1-118]	5 (Herbicidal ratio of 90% or more (almost completely withered))	1 (Herbicidal ratio of 5% or more and less than 20%)	4 (Herbicidal ratio of 70% or more and less than 90%)	0 (Herbicidal ratio of 5% or less (almost no effect))	5 (Herbicidal ratio of 90% or more (almost completely withered))	4 (Herbicidal ratio of 70% or more and less than 90%)	3 (Herbicidal ratio of 40% or more and less than 70%)	5 (Herbicidal ratio of 90% or more (almost completely withered))	5 (Herbicidal ratio of 90% or more (almost completely withered))	4 (Herbicidal ratio of 70% or more and less than 90%)	5 (Herbicidal ratio of 90% or more (almost completely withered))	4 (Herbicidal ratio of 70% or more and less than 90%)	4 (Herbicidal ratio of 70% or more and less than 90%)	5 (Herbicidal ratio of 90% or more (almost completely withered))	3 (Herbicidal ratio of 40% or more and less than 70%)	1 (Herbicidal ratio of 5% or more and less than 20%)	5 (Herbicidal ratio of 90% or more (almost completely withered))	1 (Herbicidal ratio of 5% or more and less than 20%)	4 (Herbicidal ratio of 70% or more and less than 90%)	3 (Herbicidal ratio of 40% or more and less than 70%)	B: Scirpus juncoides (herbicidal effect grade) (Scirpus juncoides): 2 (Herbicidal ratio of 20% or more and less than 40%); C: Monochoria vaginalis (herbicidal effect grade) (Monochoria vaginalis): 0 (Herbicidal ratio of 5% or less (almost no effect))
Cc1nnc(NC(=O)c2ccc(C(F)(F)F)n3c(N4CC[S+]([O-])CC4)nnc23)o1 [1-119]	5 (Herbicidal ratio of 90% or more (almost completely withered))	3 (Herbicidal ratio of 40% or more and less than 70%)	3 (Herbicidal ratio of 40% or more and less than 70%)	2 (Herbicidal ratio of 20% or more and less than 40%)	5 (Herbicidal ratio of 90% or more (almost completely withered))	4 (Herbicidal ratio of 70% or more and less than 90%)	3 (Herbicidal ratio of 40% or more and less than 70%)	5 (Herbicidal ratio of 90% or more (almost completely withered))	5 (Herbicidal ratio of 90% or more (almost completely withered))	4 (Herbicidal ratio of 70% or more and less than 90%)	5 (Herbicidal ratio of 90% or more (almost completely withered))	4 (Herbicidal ratio of 70% or more and less than 90%)	5 (Herbicidal ratio of 90% or more (almost completely withered))	5 (Herbicidal ratio of 90% or more (almost completely withered))	3 (Herbicidal ratio of 40% or more and less than 70%)	2 (Herbicidal ratio of 20% or more and less than 40%)	4 (Herbicidal ratio of 70% or more and less than 90%)	3 (Herbicidal ratio of 40% or more and less than 70%)	5 (Herbicidal ratio of 90% or more (almost completely withered))	2 (Herbicidal ratio of 20% or more and less than 40%)	B: Scirpus juncoides (herbicidal effect grade) (Scirpus juncoides): 1 (Herbicidal ratio of 5% or more and less than 20%); C: Monochoria vaginalis (herbicidal effect grade) (Monochoria vaginalis): 0 (Herbicidal ratio of 5% or less (almost no effect))
